Source: patent publication US20230265151A1, “GIP/GLP1 CO-AGONIST COMPOUNDS” (priority 2020, published 2023)
Like-named read-outs stand apart in the source and are kept apart here. *1 amine or outer side, *2 acyl side, *3 side chain or, on linkers, in order; H or OH if unused. Where a SMILES comes first, the peptide text is derived from it. Side-chain parts run from the residue outwards. [ ]: non-standard residue; d: D form. The star is where a group is joined. αMePhe(2-F) = C[C@](N)(Cc1ccccc1F)C(=O)O; γGlu = O=C(O)[C@H](CCC(=O)[*:2])N[*:1]; C14 diacid = O=C(O)CCCCCCCCCCCCC(=O)*; αMeY = C[C@](N)(Cc1ccc(O)cc1)C(=O)O; 4Pal = N[C@@H](Cc1ccncc1)C(=O)O; αMeL = CC(C)C[C@](C)(N)C(=O)O; Orn = NCCC[C@H](N)C(=O)O; AEEA = NCCOCCOCC(=O)O; Aib = CC(C)(N)C(=O)O

Tests used:
Type in all cases: cell-based
hGCGR = biological target: T1, hGCGR (Homo sapiens, UniProt P47871); assay: Functional cAMP formation (HTRF) in HEK-293 clonal cells expressing hGCGR, 0.1% bovine casein, without or with 1.0% human serum albumin; details: 37° C., geometric mean
T1 construct: expressed in transfected cells
Method in brief: (§1)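 Readings of the HTRF 665/620 nm ratio, which falls as cAMP rises, were converted to nM cAMP using a standard curve after 30 min peptide exposure at 37° C.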

hGIPR = biological target: T2, hGIPR (Homo sapiens, UniProt P48546); assay: Functional cAMP formation (HTRF) in HEK-293 clonal cells expressing hGIPR, 0.1% bovine casein, without or with 1.0% human serum albumin; details: for Emax: percent of maximal response to GIP(1-42)NH2; for EC50: geometric mean, read-out: hGIPR EC50, nM (SEM, n)
T2 construct: expressed in transfected cells
T2 sequence (P48546 22-466): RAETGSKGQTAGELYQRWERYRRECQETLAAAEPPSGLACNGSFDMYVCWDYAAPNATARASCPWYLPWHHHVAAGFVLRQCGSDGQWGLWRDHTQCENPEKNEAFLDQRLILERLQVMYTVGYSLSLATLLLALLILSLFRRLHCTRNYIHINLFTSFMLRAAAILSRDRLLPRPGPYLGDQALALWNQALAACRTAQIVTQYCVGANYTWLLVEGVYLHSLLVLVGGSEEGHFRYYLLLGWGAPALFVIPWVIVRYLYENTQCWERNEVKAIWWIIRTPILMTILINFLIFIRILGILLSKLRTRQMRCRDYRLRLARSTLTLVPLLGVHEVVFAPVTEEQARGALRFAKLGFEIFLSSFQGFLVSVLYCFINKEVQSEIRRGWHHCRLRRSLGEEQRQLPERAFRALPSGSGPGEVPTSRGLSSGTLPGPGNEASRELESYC
Method in brief: as §1

hGLP-1R = hGLP-1R (Homo sapiens, UniProt P43220); assay: Functional cAMP formation (HTRF) in HEK-293 clonal cells expressing hGLP-1R, 0.1% bovine casein, without or with 1.0% human serum albumin; design: expressed in transfected cells; details: 37° C.; for EC50: cAMP, 0.1% bovine casein (no human serum albumin), geometric mean; for Emax: percent of maximal response to GLP-1(7-36)NH2, read-out: hGLP-1R Emax, % ± SEM
Method in brief: as §1

[1] = 0.1% bovine casein and 1.0% human serum albumin, read-out: hGCGR EC50, nM (SEM, n)
[2] = cAMP, 0.1% bovine casein (no human serum albumin), read-out: hGCGR EC50, nM (SEM, n)
[3] = HEK293, 0.1% bovine casein and 1.0% human serum albumin, 37° C., read-out: hGIPR Emax, % ± SEM
[4] = cAMP, 37° C., 0.1% bovine casein (no human serum albumin)
[5] = HEK293, 0.1% bovine casein and 1.0% human serum albumin
[6] = HEK293, cAMP, 0.1% bovine casein, arithmetic mean
[7] = read-out: hGLP-1R EC50, nM (SEM, n)
[8] = 0.1% bovine casein and 1.0% human serum albumin, 37° C.

Sequence of hGLP-1R (P43220 24-463): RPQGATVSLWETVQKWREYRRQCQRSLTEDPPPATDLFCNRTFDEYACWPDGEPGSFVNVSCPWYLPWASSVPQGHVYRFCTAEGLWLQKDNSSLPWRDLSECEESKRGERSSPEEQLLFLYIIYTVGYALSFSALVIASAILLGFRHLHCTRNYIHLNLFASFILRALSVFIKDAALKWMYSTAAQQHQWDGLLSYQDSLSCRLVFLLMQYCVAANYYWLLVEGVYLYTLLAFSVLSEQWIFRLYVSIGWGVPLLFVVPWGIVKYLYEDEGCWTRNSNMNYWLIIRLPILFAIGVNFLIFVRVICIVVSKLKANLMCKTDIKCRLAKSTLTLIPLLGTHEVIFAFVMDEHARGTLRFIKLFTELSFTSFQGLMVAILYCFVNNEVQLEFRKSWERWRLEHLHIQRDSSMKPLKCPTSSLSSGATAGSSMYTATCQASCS
T1 sequence (P47871 26-477): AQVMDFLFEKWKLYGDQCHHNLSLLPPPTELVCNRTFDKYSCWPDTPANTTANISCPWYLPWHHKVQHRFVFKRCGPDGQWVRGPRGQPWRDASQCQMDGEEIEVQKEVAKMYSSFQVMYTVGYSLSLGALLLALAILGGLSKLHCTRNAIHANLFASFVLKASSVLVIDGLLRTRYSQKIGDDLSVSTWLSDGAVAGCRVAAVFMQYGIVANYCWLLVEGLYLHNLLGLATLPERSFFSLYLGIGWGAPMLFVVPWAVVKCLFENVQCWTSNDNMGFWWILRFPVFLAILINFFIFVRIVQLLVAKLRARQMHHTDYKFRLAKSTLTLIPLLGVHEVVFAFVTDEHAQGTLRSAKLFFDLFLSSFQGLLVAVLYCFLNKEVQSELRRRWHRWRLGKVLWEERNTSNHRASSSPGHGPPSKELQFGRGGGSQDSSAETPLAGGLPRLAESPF

`CCCC[C@H](NC(=O)[C@H](CC(=O)O)NC(=O)[C@H](CO)NC(=O)[C@@H](NC(=O)[C@](C)(Cc1ccccc1F)NC(=O)[C@@H](NC(=O)CNC(=O)[C@H](CCC(=O)O)NC(=O)C(C)(C)NC(=O)[C@@H](N)Cc1ccc(O)cc1)[C@@H](C)O)[C@@H](C)O)C(=O)N[C@@H](CO)C(=O)N[C@H](C(=O)N[C@@](C)(CC(C)C)C(=O)N[C@@H](CC(C)C)C(=O)N[C@@H](CC(=O)O)C(=O)N[C@@H](CCCN)C(=O)N[C@H](C(=O)N[C@@H](C)C(=O)N[C@@H](CCC(N)=O)C(=O)NC(C)(C)C(=O)N[C@@H](CCC(=O)O)C(=O)N[C@@H](Cc1ccccc1)C(=O)N[C@H](C(=O)N[C@@H](CCCCNC(=O)COCCOCCNC(=O)COCCOCCNC(=O)CC[C@H](NC(=O)CCCCCCCCCOc1ccc(C(=O)O)cc1)C(=O)O)C(=O)N[C@@](C)(Cc1ccc(O)cc1)C(=O)N[C@@H](CC(C)C)C(=O)N[C@H](C(=O)N[C@@H](CCCCNC(=O)COCCOCCNC(=O)COCCOCCNC(=O)CC[C@H](NC(=O)CCCCCCCCCOc1ccc(C(=O)O)cc1)C(=O)O)C(=O)NCC(=O)NCC(=O)N1CCC[C@H]1C(=O)N[C@@H](CO)C(=O)N[C@@H](CO)C(=O)NCC(=O)N[C@@H](C)C(=O)N1CCC[C@H]1C(=O)N1CCC[C@H]1C(=O)N1CCC[C@H]1C(=O)N[C@@H](CO)C(N)=O)[C@@H](C)CC)[C@@H](C)CC)[C@@H](C)CC)[C@@H](C)CC` [Example 314] was tested, and the EC50 (hGCGR; hGCGR EC50, nM (SEM, n), 0.1% bovine casein and 1.0% human serum albumin) was > 9950 nM, the EC50 (hGCGR; hGCGR EC50, nM (SEM, n), cAMP, 0.1% bovine casein (no human serum albumin)) was > 9950 nM and the Emax (hGIPR; HEK293, read-out: hGIPR Emax, % ± SEM, cAMP, 37° C., 0.1% bovine casein, arithmetic mean) was 100%. For the same molecule, the EC50 (hGLP-1R; hGLP-1R EC50, nM (SEM, n)) was 0.673 nM.
`CC[C@H](C)[C@H](NC(=O)[C@H](CCCN)NC(=O)[C@H](CC(=O)O)NC(=O)[C@H](CC(C)C)NC(=O)[C@](C)(CC(C)C)NC(=O)[C@@H](NC(=O)C(C)(C)NC(=O)[C@H](Cc1ccncc1)NC(=O)[C@H](CC(=O)O)NC(=O)[C@H](CO)NC(=O)[C@@H](NC(=O)[C@](C)(Cc1ccccc1F)NC(=O)[C@@H](NC(=O)CNC(=O)[C@H](CCC(=O)O)NC(=O)C(C)(C)NC(=O)[C@@H](N)Cc1ccc(O)cc1)[C@@H](C)O)[C@@H](C)O)[C@@H](C)CC)C(=O)N[C@@H](C)C(=O)N[C@@H](CCC(N)=O)C(=O)NC(C)(C)C(=O)N[C@@H](CCCN)C(=O)N[C@@H](Cc1ccccc1)C(=O)N[C@H](C(=O)N[C@@H](CCCCNC(=O)COCCOCCNC(=O)COCCOCCNC(=O)CC[C@H](NC(=O)CCCCCCCCCCCCC(=O)O)C(=O)O)C(=O)N[C@@](C)(Cc1ccc(O)cc1)C(=O)N[C@@H](CC(C)C)C(=O)N[C@H](C(=O)N[C@@H](CCCCNC(=O)COCCOCCNC(=O)COCCOCCNC(=O)CC[C@H](NC(=O)CCCCCCCCCCCCC(=O)O)C(=O)O)C(=O)NCC(=O)NCC(=O)N1CCC[C@H]1C(=O)N[C@@H](CO)C(=O)N[C@@H](CO)C(=O)NCC(=O)N[C@@H](C)C(=O)N1CCC[C@H]1C(=O)N1CCC[C@H]1C(=O)N1CCC[C@H]1C(=O)N[C@@H](CO)C(N)=O)[C@@H](C)CC)[C@@H](C)CC` [Example 315] (H-Y[Aib]EGT[αMePhe(2-F)]TSD[4Pal][Aib]I[αMeL]LD[Orn]IAQ[Aib][Orn]FIK([AEEA-AEEA-γGlu-C14 diacid])[αMeY]LIK([AEEA-AEEA-γGlu-C14 diacid])GGPSSGAPPPS-NH2) was tested, and the EC50 (hGCGR; [1]) was > 9950 nM, the EC50 (hGCGR; [2]) was > 9950 nM and the Emax (hGIPR; [3]) was 89.2%. It also gave an EC50 (hGIPR; [4]) of 0.0245 nM, an Emax (hGLP-1R; [5]) of 93.5% and an Emax (hGLP-1R; [6]) of 98.9%. For the same molecule, the EC50 (hGLP-1R; [7]) was 0.376 nM.
`CC[C@H](C)[C@H](NC(=O)[C@H](CCCN)NC(=O)[C@H](CC(=O)O)NC(=O)[C@H](CC(C)C)NC(=O)[C@](C)(CC(C)C)NC(=O)[C@@H](NC(=O)C(C)(C)NC(=O)[C@H](Cc1ccc(O)cc1)NC(=O)[C@H](CC(=O)O)NC(=O)[C@H](CO)NC(=O)[C@@H](NC(=O)[C@](C)(Cc1ccccc1F)NC(=O)[C@@H](NC(=O)CNC(=O)[C@H](CCC(=O)O)NC(=O)C(C)(C)NC(=O)[C@@H](N)Cc1ccc(O)cc1)[C@@H](C)O)[C@@H](C)O)[C@@H](C)CC)C(=O)N[C@@H](C)C(=O)N[C@@H](CCC(N)=O)C(=O)NC(C)(C)C(=O)N[C@@H](CCCN)C(=O)N[C@@H](Cc1ccccc1)C(=O)N[C@H](C(=O)N[C@@H](CCCCNC(=O)COCCOCCNC(=O)COCCOCCNC(=O)CC[C@H](NC(=O)CCCCCCCCCCCCC(=O)O)C(=O)O)C(=O)N[C@@](C)(Cc1ccc(O)cc1)C(=O)N[C@@H](CC(C)C)C(=O)N[C@H](C(=O)N[C@@H](CCCCNC(=O)COCCOCCNC(=O)COCCOCCNC(=O)CC[C@H](NC(=O)CCCCCCCCCCCCC(=O)O)C(=O)O)C(=O)NCC(=O)NCC(=O)N1CCC[C@H]1C(=O)N[C@@H](CO)C(=O)N[C@@H](CO)C(=O)NCC(=O)N[C@@H](C)C(=O)N1CCC[C@H]1C(=O)N1CCC[C@H]1C(=O)N1CCC[C@H]1C(=O)N[C@@H](CO)C(N)=O)[C@@H](C)CC)[C@@H](C)CC` [Example 316] was tested, and the EC50 (hGCGR; [1]) was > 9950 nM, the EC50 (hGCGR; [2]) was > 9950 nM and the EC50 (hGIPR; [8]) was 1.11 nM. It also gave an EC50 (hGIPR; [4]) of 0.0316 nM, an Emax (hGLP-1R; [5]) of 113% and an Emax (hGLP-1R; [6]) of 109%. It also gave an EC50 (hGLP-1R; [7]) of 0.571 nM.
For `CC[C@H](C)[C@H](NC(=O)[C@H](CCCN)NC(=O)[C@H](CC(=O)O)NC(=O)[C@H](CC(C)C)NC(=O)[C@](C)(CC(C)C)NC(=O)[C@@H](NC(=O)C(C)(C)NC(=O)[C@@H](NC(=O)[C@H](CC(=O)O)NC(=O)[C@H](CO)NC(=O)[C@@H](NC(=O)[C@](C)(Cc1ccccc1F)NC(=O)[C@@H](NC(=O)CNC(=O)[C@H](CCC(=O)O)NC(=O)C(C)(C)NC(=O)[C@@H](N)Cc1ccc(O)cc1)[C@@H](C)O)[C@@H](C)O)C(C)C)[C@@H](C)CC)C(=O)N[C@@H](C)C(=O)N[C@@H](CCC(N)=O)C(=O)NC(C)(C)C(=O)N[C@@H](CCCN)C(=O)N[C@@H](Cc1ccccc1)C(=O)N[C@H](C(=O)N[C@@H](CCCCNC(=O)COCCOCCNC(=O)COCCOCCNC(=O)CC[C@H](NC(=O)CCCCCCCCCCCCC(=O)O)C(=O)O)C(=O)N[C@@](C)(Cc1ccc(O)cc1)C(=O)N[C@@H](CC(C)C)C(=O)N[C@H](C(=O)N[C@@H](CCCCNC(=O)COCCOCCNC(=O)COCCOCCNC(=O)CC[C@H](NC(=O)CCCCCCCCCCCCC(=O)O)C(=O)O)C(=O)NCC(=O)NCC(=O)N1CCC[C@H]1C(=O)N[C@@H](CO)C(=O)N[C@@H](CO)C(=O)NCC(=O)N[C@@H](C)C(=O)N1CCC[C@H]1C(=O)N1CCC[C@H]1C(=O)N1CCC[C@H]1C(=O)N[C@@H](CO)C(N)=O)[C@@H](C)CC)[C@@H](C)CC` [Example 317], the EC50 (hGCGR; [1]) was > 9950 nM, the EC50 (hGCGR; [2]) was > 9950 nM and the EC50 (hGIPR; [8]) was 2.03 nM. It also gave an Emax (hGIPR; [3]) of 84.4%, an Emax (hGIPR; HEK293, cAMP, 37° C., 0.1% bovine casein, arithmetic mean, read-out: hGIPR Emax, % ± SEM) of 112% and an EC50 (hGIPR; [4]) of 0.0587 nM. It also gave an Emax (hGLP-1R; [5]) of 98.1% and an EC50 (hGLP-1R; [7]) of 1.34 nM.
